Laboratory results from US8629282B2, “Heterocyclic compounds as S1P1 agonists for the treatment of autoimmune and vascular diseases” (Bristol-Myers Squibb Company, priority 2010, dated 2014).
Marks after values point to notes of the source that are not given here.

How the values were obtained:
human S1P1 = human S1P1 (Homo sapiens (Human), UniProt P21453); assay: S1P1 Binding Assay (33P-S1P radioligand competition); details: membranes of CHO cells expressing human S1P1, 0.03 nM 33P-S1P; rounded to two digits
Protocol: Membranes were prepared from CHO cells expressing human S1P1. Cells were dissociated in buffer containing 20 mM HEPES, pH 7.5, 50 mM NaCl, 2 mM EDTA and Protease Inhibitor cocktail (Roche), and disrupted on ice using the Polytron homogenizer. The homogenate was centrifuged at 20,000 rpm (48,000 G) and the supernatant was discarded. The membrane pellets were resuspended in buffer containing 50 mM HEPES, pH 7.5, 100 mM NaCl, 1 mM MgCl2, 2 mM EDTA and stored in aliquots at −80° C. after protein concentration determination.
Membranes (2 μg/well) and 0.03 nM final concentration of 33P-S1P ligand (1 mCi/ml, American Radiolabeled Chemicals) were added to the compound plates. Binding was performed for 45 minutes at room temperature, terminated by collecting the membranes onto GF/B filter plates, and radioactivity was measured by TOPCOUNT®. The competition data of the test compounds over a range of concentrations was plotted as percentage inhibition of radioligand specific binding. The IC50 is defined as the concentration of competing ligand needed to reduce specific binding by 50%.
The results in Table A were rounded to two digits.

[1] = biological target: S1P1 (membranes from S1P1/CHO cells) (Homo sapiens (Human), UniProt P21453); assay: Receptor [35S] GTPγS Binding Assay, S1P1; assay type: biochemical; details: for EC50: S1P1/CHO membranes; for GTPγS S1P3/S1P1 (ratio of GTPγS S1P3 EC50 to GTPγS S1P1 EC50): calculated from Table B, S1P3 detection limit 31250 nM
Protocol: (§1) Receptor [35S] GTPγS Binding Assays
(§2) Compounds were loaded in a 384 FALCON® v-bottom plate (0.5 μl/well in a 3-fold dilution). Membranes prepared from S1P1/CHO cells or EDG3-Ga15-bla HEK293T cells were added to the compound plate (40 μl/well, final protein 3 μg/well) with MULTIDROP®. [^35S]GTP (1250 Ci/mmol, Perkin Elmer) was diluted in assay buffer: 20 mM HEPES, pH7.5, 10 mM MgCl2, 150 mM NaCl, 1 mM EGTA, 1 mM DTT, 10 μM GDP, 0.1% fatty acid free BSA, and 10 μg/ml Saponin to 0.4 nM. 40 μl of the [^35S] GTP solution was added to the compound plate with a final concentration of 0.2 nM. The reaction was kept at room temperature for 45 min. At the end of incubation, all the mixtures in the compound plate were transferred to a 384 well FB filter plates via GPCR robot system. The filter plate was washed with water 4 times by using the modified manifold Embla plate washer and dried at 60° C. for 45 min. 30 μl of MicroScint 20 scintillation fluid was added to each well for counting at Packard TOPCOUNT®. EC50 is defined as the agonist concentration that corresponds to 50% of the Ymax (maximal response) obtained for each individual compound tested.
A larger value for the GTPγS S1P3 EC50 value indicated less activity in the GTPγS S1P3 binding assay.

[2] = biological target: S1P3 (membranes from EDG3-Ga15-bla HEK293T cells) (Homo sapiens (Human), UniProt Q99500); assay: Receptor [35S] GTPγS Binding Assay, S1P3; assay type: biochemical; details: detection limit 31250 nM
Protocol: as §1, §2
A smaller value for GTPγS S1P1 EC50 value indicated greater activity for the compound in the GTPγS S1P1 binding assay. A larger value for the GTPγS S1P3 EC50 value indicated less activity in the GTPγS S1P3 binding assay.

[3] = system: circulating blood lymphocytes; assay: Blood Lymphocyte Reduction Assay (BLR) in Rodents; assay type: in vivo; details: Lewis rats, oral, vs vehicle group
Protocol: Blood Lymphocyte Reduction Assay (BLR) in Rodents
Lewis rats were dosed orally with test article (as a solution or suspension in the vehicle) or vehicle alone (polyethylene glycol 300, “PEG300”). Blood was drawn at 4 hr by retro-orbital bleeding. Blood lymphocyte counts were determined on an ADVIA® 120 Hematology Analyzer (Siemens Healthcare Diagnostics). The results were measured as a reduction in the percentage of circulating lymphocytes as compared to the vehicle treated group at the 4 hr measurement. The results represent the average results of all animals within each treatment group (n=3-4).
The following examples were tested in the Blood Lymphocyte Reduction assay (BLR) described herein above and the results are shown in Table D for rats.

Sequence of S1P3 (membranes from EDG3-Ga15-bla HEK293T cells) (Q99500 whole entry): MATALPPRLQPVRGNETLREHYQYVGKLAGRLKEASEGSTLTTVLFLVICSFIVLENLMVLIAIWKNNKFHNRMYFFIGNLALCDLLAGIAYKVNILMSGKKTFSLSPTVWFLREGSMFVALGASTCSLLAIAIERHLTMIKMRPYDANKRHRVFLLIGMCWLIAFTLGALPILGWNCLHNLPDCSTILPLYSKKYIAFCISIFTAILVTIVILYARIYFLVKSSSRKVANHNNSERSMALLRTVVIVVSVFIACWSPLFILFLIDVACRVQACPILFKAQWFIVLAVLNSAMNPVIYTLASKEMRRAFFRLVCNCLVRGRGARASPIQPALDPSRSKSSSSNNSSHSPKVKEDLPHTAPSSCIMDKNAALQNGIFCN
Sequence of human S1P1 (P21453 whole entry): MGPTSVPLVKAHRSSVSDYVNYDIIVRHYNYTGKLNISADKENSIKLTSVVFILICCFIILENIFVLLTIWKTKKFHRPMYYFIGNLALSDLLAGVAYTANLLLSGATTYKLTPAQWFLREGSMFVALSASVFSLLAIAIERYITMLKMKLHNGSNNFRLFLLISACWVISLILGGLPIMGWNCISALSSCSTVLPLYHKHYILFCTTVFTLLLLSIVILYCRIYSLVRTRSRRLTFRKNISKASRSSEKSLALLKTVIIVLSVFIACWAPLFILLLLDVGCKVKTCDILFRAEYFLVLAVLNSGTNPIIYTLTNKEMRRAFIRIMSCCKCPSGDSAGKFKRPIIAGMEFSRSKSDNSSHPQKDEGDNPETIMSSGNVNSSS
Sequence of S1P1 (membranes from S1P1/CHO cells) (P21453 whole entry): as above

IC50 (human S1P1)	EC50 [1]	EC50 [2]	GTPγS S1P3/S1P1 (ratio of GTPγS S1P3 EC50 to GTPγS S1P1 EC50) [1]	SMILES	% Reduction in Lymphocytes at 4 hr. ([3]; 3 mg/kg)	% Reduction in Lymphocytes at 4 hr. ([3]; 0.5 mg/kg)
23 nM	80 nM	13000 nM		N[C@@H]1COc2cc(-c3noc(-c4onc(-c5ccccc5)c4C(F)(F)F)n3)ccc2[C@H]1O (racemic) [Example 4, (3R*,4R*)-3-amino-7-(5-(3-phenyl-4-(trifluoromethyl)isoxazol-5-yl)-1,2,4-oxadiazol-3-yl)chroman-4-ol]		
		25000 nM		O=C(O)CCN[C@H]1COc2cc(-c3noc(-c4onc(-c5ccccc5)c4C(F)(F)F)n3)ccc2[C@@H]1O (racemic) [Example 5, 3-((3R*,4R*)-4-hydroxy-7-(5-(3-phenyl-4-(trifluoromethyl)isoxazol-5-yl)-1,2,4-oxadiazol-3-yl)chroman-3-ylamino)propanoic acid]		
			160	N[C@@H]1COc2cc(-c3noc(-c4onc(-c5ccccc5)c4C(F)(F)F)n3)ccc2[C@H]1O (relative stereo) [Example 4, (3R*,4R*)-3-amino-7-(5-(3-phenyl-4-(trifluoromethyl)isoxazol-5-yl)-1,2,4-oxadiazol-3-yl)chroman-4-ol]		
630 nM	160 nM	> 31000 nM	> 200*	CCOC(=O)C1CCCC(N[C@@H]2COc3cc(-c4noc(-c5onc(-c6ccccc6)c5C(F)(F)F)n4)ccc3[C@@H]2O)C1 (relative stereo) [Example 13, ethyl 3-((3R*,4S*)-4-hydroxy-7-(5-(3-phenyl-4-(trifluoromethyl)isoxazol-5-yl)-1,2,4-oxadiazol-3-yl)chroman-3-ylamino)cyclohexanecarboxylate]		
57 nM	27 nM	24000 nM	870	O=C(O)CC1CCCN([C@@H]2COc3cc(-c4noc(-c5onc(-c6ccccc6)c5C(F)(F)F)n4)ccc3[C@@H]2O)C1 (single isomer, unassigned) [Example 50]		
39 nM	33 nM	8600 nM	260	N[C@@H]1COc2cc(-c3noc(-c4onc(-c5ccccc5)c4C(F)(F)F)n3)ccc2[C@@H]1O [Example 9, (3R,4S)-3-Amino-7-(5-(3-phenyl-4-(trifluoromethyl)isoxazol-5-yl)-1,2,4-oxadiazol-3-yl)chroman-4-ol]		
		12000 nM		O=C(O)[C@H]1C[C@@H](N[C@H]2COc3cc(-c4noc(-c5onc(-c6ccccc6)c5C(F)(F)F)n4)ccc3[C@H]2O)C1 [Example 25, (1R,3S)-3-((3S,4R)-4-hydroxy-7-(5-(3-phenyl-4-(trifluoromethyl)isoxazol-5-yl)-1,2,4-oxadiazol-3-yl)chroman-3-ylamino)cyclobutanecarboxylic acid]	93%	
13 nM	6.5 nM	8000 nM	1200	O=C(O)C1(CN[C@@H]2COc3cc(-c4noc(-c5onc(-c6ccccc6)c5C(F)(F)F)n4)ccc3[C@@H]2O)CC1 [Example 30, 1-(((3R,4S)-4-hydroxy-7-(5-(3-phenyl-4-(trifluoromethyl)isoxazol-5-yl)-1,2,4-oxadiazol-3-yl)chroman-3-ylamino)methyl)cyclopropanecarboxylic acid]		
541 nM	85 nM	> 31000 nM	> 370*	O=C(O)C1(CN[C@@H]2COc3cc(-c4noc(-c5onc(-c6ccccc6)c5C(F)(F)F)n4)ccc3[C@@H]2O)CCCCC1 [Example 39, 1-(((3R,4S)-4-hydroxy-7-(5-(3-phenyl-4-(trifluoromethyl)isoxazol-5-yl)-1,2,4-oxadiazol-3-yl)chroman-3-ylamino)methyl)cyclohexanecarboxylic acid]		
20 nM	16 nM	8400 nM	510	O=C(O)C1(CN[C@@H]2COc3cc(-c4noc(-c5onc(-c6ccccc6)c5C(F)(F)F)n4)ccc3[C@@H]2O)CCC1 [Example 41, 1-(((3R,4S)-4-hydroxy-7-(5-(3-phenyl-4-(trifluoromethyl)isoxazol-5-yl)-1,2,4-oxadiazol-3-yl)chroman-3-ylamino)methyl)cyclobutanecarboxylic acid]		11%
		22000 nM		O=C(O)CCN[C@@H]1COc2cc(-c3noc(-c4onc(-c5ccccc5)c4C(F)(F)F)n3)ccc2[C@@H]1O [Example 53, 3-((3R,4S)-4-Hydroxy-7-(5-(3-phenyl-4-(trifluoromethyl)isoxazol-5-yl)-1,2,4-oxadiazol-3-yl)chroman-3-ylamino)propanoic acid]		
0.7 nM	1 nM	7300 nM	7300	O=C(O)[C@H]1CCC[C@H](N[C@@H]2COc3cc(-c4noc(-c5onc(-c6ccccc6)c5C(F)(F)F)n4)ccc3[C@@H]2O)C1 [Example 57, (1S,3S)-3-((3R,4S)-4-hydroxy-7-(5-(3-phenyl-4-(trifluoromethyl)isoxazol-5-yl)-1,2,4-oxadiazol-3-yl)chroman-3-ylamino)cyclohexanecarboxylic acid]		69%
6.6 nM	1.1 nM	11000 nM	9600	O=C(O)[C@@H]1CCC[C@@H](N[C@@H]2COc3cc(-c4noc(-c5onc(-c6ccccc6)c5C(F)(F)F)n4)ccc3[C@@H]2O)C1 [Example 65, (1R,3R)-3-((3R,4S)-4-hydroxy-7-(5-(3-phenyl-4-(trifluoromethyl)isoxazol-5-yl)-1,2,4-oxadiazol-3-yl)chroman-3-ylamino)cyclohexanecarboxylic acid]		55%
3.8 nM	5.4 nM	5200 nM	960	O=C(O)CN[C@@H]1COc2cc(-c3noc(-c4onc(-c5ccccc5)c4C(F)(F)F)n3)ccc2[C@@H]1O [Example 68, 2-((3R,4S)-4-hydroxy-7-(5-(3-phenyl-4-(trifluoromethyl)isoxazol-5-yl)-1,2,4-oxadiazol-3-yl)chroman-3-ylamino)acetic acid]		
